Consider 13 compounds from US20230159527A1, “COMPOUNDS AS BCL-2 INHIBITORS” (Fochon Pharmaceuticals, Ltd., priority 2020, published 2023).

For one test, the system named is Toledo cells. Description: Cell proliferation assay, Toledo cells (MTS, 72 h). Format: cell-based. The conditions noted are these: Homo sapiens, Toledo cells, MTS, read-out: Toledo IC50. On the procedure: MTS testing kit was purchased from Promega (Madison, Wis., USA). The RPMI-1640, Fetal bovine serum and Penicillin-Streptomycin were purchased from BI (Biological Industries, Beit Haemek, Israel). Dimethyl sulfoxide (DMSO) was purchased from Sigma (St. Louis, Mo., USA). Toledo (ATCC catalog #: CRL-2631) cells were cultured in RPMI-1640 supplemented with Penicillin-Streptomycin and 10% FBS.
To investigate whether a compound is able to inhibit the activity of BCL-2 in cells, a mechanism-based assay using Toledo lines was developed. In this assay, the inhibition of BCL-2 was reflected by the inhibition of cell proliferation of Toledo cells. Cells were plated into 96-well plates at the optimized cell density of 30000 cells/well. Plates were incubated at 37° C., with 5% CO2 for 4h. Compounds were serially diluted and added to the plates with the final concentrations of 10000, 3333.3, 1111.1, 370.4, 123.5, 41.2, 13.7, 4.6 and 1.5 nM. Plates were incubated at 37° C., with 5% CO2 for 72 h. 20 μl MTS was added into each well and the plates were incubated at 37° C., with 5% CO2 for exactly 2 h. The absorbance was measured by a microplate reader at 490 nm. IC50 was calculated using GraphPad Prism 5.0 software.
As to `CC(C)c1ccccc1[C@@H]1CCCN1C1CC2(CCN(c3ccc(C(=O)NS(=O)(=O)c4cc5c(c([N+](=O)[O-])c4)N[C@@H]([C@H]4CC[C@](C)(O)CC4)CO5)c(Oc4cc5c(F)c[nH]c5nc4Cl)c3)CC2)C1` (single isomer, unassigned) [Example D-84, 2-((6-chloro-3-fluoro-1H-pyrrolo [2,3-b]pyridin-5-yl)oxy)-N-(((S)-3-((1r,4S)-4-hydroxy-4-methylcyclohexyl)-5-nitro-3,4-dihydro-2H-benzo[b][1,4]oxazin-7-yl)sulfonyl)-4-(2-((R or S)-2-(2-isopropylphenyl)pyrrolidin-1-yl)-7-azaspiro[3.5]nonan-7-yl)benzamide], the IC50 worked out at 1 nM.
Same read-out and setting: the value for `CC(C)c1ccccc1[C@@H]1CCC[C@@H]1N1CC2(CCN(c3ccc(C(=O)NS(=O)(=O)c4cc5c(c([N+](=O)[O-])c4)N[C@@H]([C@H]4CC[C@](C)(O)CC4)CO5)c(Oc4cc5cc[nH]c5nc4OC[C@@H]4COCCO4)c3)CC2)C1` (single isomer, unassigned) [Example D-258, 2-((6-(((S)-1,4-dioxan-2-yl)methoxy)-1H-pyrrolo[2,3-b]pyridin-5-yl)oxy)-N-((S)-3-((1r,4S)-4-hydroxy-4-methylcyclohexyl)-5-nitro-3,4-dihydro-2H-benzo[b][1,4]oxazin-7-yl)sulfonyl)-4-(2-((1S,2S or 1R,2R)-2-(2-isopropylphenyl)cyclopentyl)-2,7-diazaspiro[3.5] nonan-7-yl)benzamide] was 1 nM.
On the same count and under the same terms, the value for `CC(C)c1ccccc1[C@@H]1CCCN1C1CC2(CCN(c3ccc(C(=O)NS(=O)(=O)c4cc5c(c([N+](=O)[O-])c4)N[C@H]([C@H]4CC[C@@H](O)CC4)CO5)c(Oc4cnc5[nH]cc(F)c5c4)c3)CC2)C1` (single isomer, unassigned) [Example D-43, 2-((3-fluoro-1H-pyrrolo[2,3-b]pyridin-5-yl)oxy)-N-(R)-3-((1s,4S)-4-hydroxycyclohexyl)-5-nitro-3,4-dihydro-2H-benzo[b][1,4]oxazin-7-yl)sulfonyl)-4-(2-((R or S)-2-(2-isopropylphenyl)pyrrolidin-1-yl)-7-azaspiro[3.5]nonan-7-yl)benzamide] was 1 nM; that for `COCCOc1nc2[nH]ccc2cc1Oc1cc(N2CCC3(CC2)CC(N2CCC[C@H]2c2ccccc2C(C)C)C3)ccc1C(=O)NS(=O)(=O)c1cc2c(c([N+](=O)[O-])c1)N[C@@H](C[C@H]1CC[C@](C)(O)CC1)CO2` (single isomer, unassigned) [Example D-21, N-(((S)-3-(((1r,4S)-4-hydroxy-4-methylcyclohexyl)methyl)-5-nitro-3,4-dihydro-2H-benzo[b][1,4]oxazin-7-yl)sulfonyl)-4-(2-((R or S)-2-(2-isopropylphenyl)pyrrolidin-1-yl)-7-azaspiro[3.5]nonan-7-yl)-2-((6-(2-methoxyethoxy)-1H-pyrrolo[2,3-b]pyridin-5-yl)oxy) benzamide] was 1 nM.
Still for that read-out and setting: the value for `CO[C@H]1CC[C@H]([C@H]2COc3cc(S(=O)(=O)NC(=O)c4ccc(N5CCC6(CC5)CC(N5CCC[C@H]5c5ccccc5C(C)C)C6)cc4Oc4cnc5[nH]cc(F)c5c4)cc([N+](=O)[O-])c3N2)CC1` (single isomer, unassigned) [Example D-44, 2-((3-fluoro-1H-pyrrolo[2,3-b]pyridin-5-yl)oxy)-4-(2-((R or S)-2-(2-isopropylphenyl)pyrrolidin-1-yl)-7-azaspiro[3.5]nonan-7-yl)-N-(((S)-3-((1r,4S)-4-methoxycyclohexyl)-5-nitro-3,4-dihydro-2H-benzo[b][1,4]oxazin-7-yl)sulfonyl)benzamide] was 1 nM.
With `CC(C)c1ccccc1[C@@H]1CCC[C@@H]1N1CC2(CCN(c3ccc(C(=O)NS(=O)(=O)c4ccc(NC[C@H]5CC[C@](C)(O)CC5)c([N+](=O)[O-])c4)c(Oc4cc5cc[nH]c5nc4OC4COC4)c3)CC2)C1` (single isomer, unassigned) [Example D-115, N-((4-((((1r,4r)-4-hydroxy-4-methylcyclohexyl)methyl)amino)-3-nitrophenyl)sulfonyl)-4-(2-((1S,2S or 1R,2R)-2-(2-isopropylphenyl)cyclopentyl)-2,7-diazaspiro[3.5]nonan-7-yl)-2-((6-(oxetan-3-yloxy)-1H-pyrrolo[2,3-b]pyridin-5-yl)oxy) benzamide], the half-maximal inhibitory concentration (IC50) was 1 nM.
The same measure, in the same setting: the value for `CC(C)c1ccccc1[C@@H]1CCCN1C1CC2(CCN(c3ccc(C(=O)NS(=O)(=O)c4cc5c(c([N+](=O)[O-])c4)N[C@@H]([C@H]4CC[C@](C)(O)CC4)CO5)c(Oc4cc5cc[nH]c5nc4OCC(F)(F)F)c3)CC2)C1` (single isomer, unassigned) [Example D-58, N-(((S)-3-((1r,4S)-4-hydroxy-4-methylcyclohexyl)-5-nitro-3,4-dihydro-2H-benzo[b][1,4]oxazin-7-yl)sulfonyl)-4-(2-((R or S)-2-(2-isopropylphenyl)pyrrolidin-1-yl)-7-azaspiro[3.5]nonan-7-yl)-2-((6-(2,2,2-trifluoroethoxy)-1H-pyrrolo[2,3-b]pyridin-5-yl)oxy) benzamide] was 1 nM; that for `CC(C)c1ccccc1[C@@H]1CN(S(=O)(=O)C2CC2)CCN1C1CC2(CCN(c3ccc(C(=O)NS(=O)(=O)c4cc5c(c([N+](=O)[O-])c4)N[C@@H]([C@H]4CC[C@](C)(O)CC4)CO5)c(Oc4cnc5[nH]cc(F)c5c4)c3)CC2)C1` (single isomer, unassigned) [Example D-81, 4-(2-((R or S)-4-(cyclopropylsulfonyl)-2-(2-isopropylphenyl)piperazin-1-yl)-7-azaspiro[3.5]nonan-7-yl)-2-((3-fluoro-1H-pyrrolo[2,3-b]pyridin-5-yl)oxy)-N-(((S)-3-((1r,4S)-4-hydroxy-4-methylcyclohexyl)-5-nitro-3,4-dihydro-2H-benzo[b][1,4]oxazin-7-yl)sulfonyl)benzamide] was 1 nM.
On the same count and under the same terms, the value for `COCCOc1nc2[nH]ccc2cc1Oc1cc(N2CCC3(CC2)CN([C@H]2CCC[C@H]2c2ccccc2C(C)C)C3)ccc1C(=O)NS(=O)(=O)c1ccc(NC[C@H]2CC[C@](C)(O)CC2)c([N+](=O)[O-])c1` (racemic) [Example D-76, N-((4-((((1r,4r)-4-hydroxy-4-methylcyclohexyl)methyl)amino)-3-nitrophenyl)sulfonyl)-4-(2-((1S,2S and 1R,2R)-2-(2-isopropylphenyl)cyclopentyl)-2,7-diazaspiro[3.5]nonan-7-yl)-2-((6-(2-methoxyethoxy)-1H-pyrrolo[2,3-b]pyridin-5-yl)oxy)benzamide] was 1 nM.

The same test, now with this note: Homo sapiens, Toledo, read-out: Toledo IC50 (nM).
As to `CC(C)c1ccccc1[C@@H]1COCCN1C1CC2(CCN(c3ccc(C(=O)NS(=O)(=O)c4cc5c(c([N+](=O)[O-])c4)N[C@@H]([C@H]4CC[C@](C)(O)CC4)CO5)c(Oc4cnc5[nH]cc(Br)c5c4)c3)CC2)C1` (single isomer, unassigned) [Example D-3, 2-((3-bromo-1H-pyrrolo[2,3-b]pyridin-5-yl)oxy)-N-((S)-3-((1r,4S)-4-hydroxy-4-methylcyclohexyl)-5-nitro-3,4-dihydro-2H-benzo [b][1,4]oxazin-7-yl)sulfonyl)-4-(2-((R or S)-3-(2-isopropylphenyl)morpholino)-7-azaspiro[3.5]nonan-7-yl) benzamide], the IC50 was 1 nM.

Staying with this test, now noted: Toledo cells, MTS, read-out: Toledo IC50.
On to `CC(C)c1ccccc1[C@H]1CCCN1C1CC2(CCN(c3ccc(C(=O)NS(=O)(=O)c4cc5c(c([N+](=O)[O-])c4)NC([C@@H]4COCCO4)CO5)c(Oc4cnc5[nH]cc(F)c5c4)c3)CC2)C1` (single isomer, unassigned) [Example D-49b, N-(((R or S)-3-((R)-1,4-dioxan-2-yl)-5-nitro-3,4-dihydro-2H-benzo[b][1,4]oxazin-7-yl)sulfonyl)-2-((3-fluoro-1H-pyrrolo[2,3-b]pyridin-5-yl)oxy)-4-(2-((R or S)-2-(2-isopropylphenyl)pyrrolidin-1-yl)-7-azaspiro[3.5]nonan-7-yl)benzamide], for which the half-maximal inhibitory concentration (IC50) came to 1 nM.
The same measure, in the same setting: the value for `CC(C)c1ccccc1[C@@H]1CCC[C@@H]1N1CC2(CCN(c3ccc(C(=O)NS(=O)(=O)c4cc5c(c([N+](=O)[O-])c4)N[C@@H]([C@H]4CC[C@](C)(O)CC4)CO5)c(Oc4cnc5[nH]cc(F)c5c4)c3)CC2)C1` (single isomer, unassigned) [Example D-28b, 2-((3-fluoro-1H-pyrrolo[2,3-b]pyridin-5-yl)oxy)-N-(((S)-3-((1r,4S)-4-hydroxy-4-methylcyclohexyl)-5-nitro-3,4-dihydro-2H-benzo[b] [1,4]oxazin-7-yl)sulfonyl)-4-(2-((1S,2S or 1R,2R)-2-(2-isopropylphenyl)cyclopentyl)-2,7-diazaspiro[3.5]nonan-7-yl)benzamide] was 1 nM; that for `CC(C)c1ccccc1[C@H]1CCCN1C1CC2(CCN(c3ccc(C(=O)NS(=O)(=O)c4cc5c(c([N+](=O)[O-])c4)NC([C@H]4COCCO4)CO5)c(Oc4cnc5[nH]cc(F)c5c4)c3)CC2)C1` (single isomer, unassigned) [Example D-50b, N-(((R or S)-3-((S)-1,4-dioxan-2-yl)-5-nitro-3,4-dihydro-2H-benzo[b][1,4]oxazin-7-yl)sulfonyl)-2-((3-fluoro-1H-pyrrolo[2,3-b]pyridin-5-yl)oxy)-4-(2-((R or S)-2-(2-isopropylphenyl)pyrrolidin-1-yl)-7-azaspiro[3.5]nonan-7-yl)benzamide] was 1 nM.
